This passage reports VEGF-C, IC50 and VEGF-E results from patent US7238813B2, “Chemical compounds” (Smithkline Beecham Corporation, priority 2000, dated 2007).

The structures appear in SMILES notation. Some results are limits rather than exact numbers.

By IC50 is commonly meant the concentration that inhibits the measured activity by half.

Assay [1] relates to Human umbilical cord endothelial cells (HUVEC). In words: VEGF-driven cellular proliferation assay: BrdU incorporation assay (VEGF-C). Details: key to VEGF-C: + = pIC50 of 5.0–6.0; ++ = pIC50 of 6.0–7.0; +++ = pIC50 of > 7.0; − = a negative or inconclusive result. Conditions: for IC50: Homo sapiens. The assay is classed as cell-based. The protocol:
VFGF-driven Cellular Proliferation Assay: BrdU Incorporation Assay (VEGF-C)
Human umbilical cord endothelial cells (HUVEC, Clonetics, CC2519) were passaged in Type I collagen-coated 100-mm petridishes in EGM-MV medium (Clonetics, CC3125) at 37° C. in a humidified 5% CO2, 95% air incubator. (HUVEC passaged more than 6 times in vitro were discarded and not subjected to assaying.) The cells were harvested using trypsin/EDTA, counted using a haemocytometer and plated at 5000 cells/well in a Type I-collagen coated 96-well plate (Becton Dickinson, 354407) in M199 medium (Gibco BRL, 12340-030) containing 5% FBS (Hyclone, A 1115-L) and gentamicin (at 50 μg/ml, Gibco BRL). After incubation overnight at 37° C., the media were replaced with 100 μl of M199 serum-free medium containing compounds at various concentrations with 0.6% DMSO and gentamicin. The compounds were diluted in serum-free M199 medium from 10 mM stock solutions prepared in 100% DMSO. After a 30 min incubation at 37° C., the cells were fed with 100 μl of serum-free M199 medium containing gentamicin, 0.2% culture-grade bovine serum albumin (BSA, Sigma A1993) and 20 ng/ml of VEGF (R&D systems, 293-VE) or 0.6 ng/ml of basic FGF (R&D systems, 233-FB), and cultured at 37° C. for another 24 h. The cells were pulsed with bromodeoxyuridine (BrdU at 10 μM in serum-free M199) at 37° C. for an additional 24 h. The incorporation of BrdU into the proliferating HUVEC were analyzed using BrdU Cell Proliferation ELISA (Roche Molecular Biochemicals, 1647229) according to the manufacturer's protocols. The optical density at 450 nm was measured with a multilabel counter (ARVO SX, Wallac). The percent inhibition of cell growth was calculated relative to blank control wells. The concentration of test compound that inhibits 50% of cell growth (IC50) was interpolated using nonlinear regression (Levernberg-Marquardt) and the equation, y=Vmax (1−x/(K+x))+Y2, where “K” was equal to the IC50. The IC50, values were converted to pIC50 values, i.e., −log IC50 in Molar concentration.
In general terms: Dividing cells build labelled thymidine or BrdU into new DNA.

Assay [2] addresses T1, TIE2 intracellular domain/c-fms extracellular domain (TIE2/c-fms) chimeric protein expressing mouse 3T3 cells (Homo sapiens, UniProt Q02763).
T1 construct: a TIE2 intracellular domain/c-fms extracellular domain (TIE2/c-fms) chimeric protein; expressed in transfected cells; host or cells: mouse 3T3 cells
Description: TIE-2 autophosphorylation assay (TIE2-C), ELISA. The following applies: TIE2/c-fms 3T3 cells, MCSF activation. The assay is classed as cell-based. The protocol:
TIE-2 Autophosphorylation Assay (TIE2-C)
The TIE-2 autophosphorylation assay used an ELISA method and a TIE2 intracellular domain/c-fms extracellular domain (TIE2/c-fms) chimeric protein expressing mouse 3T3 cells. This assay measured the autophosphorylation level of TIE2 protein expressed in cells. The cells were cultured in high glucose DMEM (Sigma) containing 10% serum at 37° C. in a humidified 10% CO2, 90% air incubator. The test compound (diluted from a 10 mM stock in DMSO, final DMSO concentration was 0.1%) was incubated with TIE2/c-fms expressing cells for 1 hr in serum free DMEM in 96 well plates followed by the activation of TIE2/c-fms receptor using c-fms ligand, MCSF (macrophage colony stimulating factor). The culture media was removed by aspiration and the cells incubated for at least 30 mins on ice with lysis buffer containing 137 mM NaCl, 2 mM EDTA, 10% glycerol, […] sodium ortho vanadate and complete protease inhibitor cocktail (Roche) in 20 mM Tris-HCl (pH8.0). The cell extracts were transferred into Rat anti-c-fms antibody coated 96 well plates and incubated for 12 hrs at 4° C. The extracts were removed by aspiration and the plate was incubated with biotinylated anti-phosphotyrosine antibody, PT66 (Sigma) and then with HRP (Horseradish Peroxidase)-labeled streptavidin (PIERCE). The optical density at 450 nm derived from HRP catalyzed TMB was measured with an ARVO multilabel counter. (Wallac Berthold Japan). The percent inhibition of activity was calculated relative to blank control wells. The concentration of test compound that inhibits 50% of activity (IC50) was interpolated using nonlinear regression (Levernberg-Marquardt) and the equation, y=Vmax (1−x/(K+x))+Y2, where “K” was equal to the IC50. The IC50 values were converted to pIC50 values, i.e., −log IC50 in Molar concentration.
Background: In an ELISA, binding on a coated surface is turned into a signal by an enzyme label.

Assay [3] addresses T2, GST-TIE2 (intracellular domains of human TIE2) (Homo sapiens, UniProt Q02763).
T2 construct: made in house
In words: TIE-2 enzyme assay (TIE2-E), LANCE method. The following applies: 80 uM ATP. The assay is classed as biochemical. The protocol:
TIE-2Enzyme Assay (TIE2-E)
The TIE-2 enzyme assay used the LANCE method (Wallac) and GST-TIE2, baculovirus expressed recombinant constructs of the intracellular domains of human TIE2 (amino acids 762–1104, GenBank Accession # L06139) tagged by GST). […] This peptide phosphorylation was detected using the following procedure: for enzyme preactivation, GST-TIE2 was incubated for 30 mins at room temperature with 2 mM ATP, 5 mM MgCl2 and 12.5 mM DTT in 22.5 mM HEPES buffer (pH7.4). Preactivated GST-TIE2 was incubated for 30 mins at room temperature in 96 well plates with 1 μM D1-15 peptide, 80 uM ATP, 10 mM MgCl2, 0.1 mg/ml BSA and the test compound (diluted from a 10 mM stock in DMSO, final DMSO concentration was 2.4%) in 1 mM HEPES (pH7.4). The reaction was stopped by the addition of EDTA (final concentration 45 mM). Streptavidin linked-APC (allophycocyanin, Molecular Probe) and Europium-labeled anti-phosphorylated tyrosine antibody (Wallac) were then added at the final concentration of 17 μg/well and 2.1 μg/well, respectively. The APC signal was measured using an ARVO multilabel counter. (Wallac Berthold Japan). The percent inhibition of activity was calculated relative to blank control wells. The concentration of test compound that inhibits 50% of activity (IC50) was interpolated using nonlinear regression (Levernberg-Marquardt) and the equation, y=Vmax (1−x/(K+x))+Y2, where “K” was equal to the IC50. The IC50 values were converted to pIC50 values, i.e., −log IC50 in Molar concentration.
A general note: TR-FRET usually uses a lanthanide donor and a delayed reading to cut background.

Another assay addresses T3, GST-VEGFR2 (Homo sapiens, UniProt P35968).
T3 construct: GST-VEGFR2, baculovirus expressed recombinant constructs of the intracellular domains of human TIE2 tagged by GST; made in house
Description: VEGF-R2 enzyme assay (VEGF-E), LANCE method. The assay is classed as biochemical. The following applies: 75 μM ATP. The protocol:
VEGF-R2 Enzyme Assay (VEGF-E)
The VEGF enzyme assay used the LANCE method (Wallac) and GST-VEGFR2, baculovirus expressed recombinant constructs of the intracellular domains of human […] tagged by GST. […] The reaction was stopped by the addition of EDTA (final concentration 50 mM). Streptavidin linked-APC (allophycocyanin, Molecular Probe) and Europium-labeled anti-phosphorylated tyrosine antibody (Wallac) were then added at the final concentration of 15 nM and 1 nM, respectively. The APC signal was measured using an ARVO multilabel counter (Wallac Berthold, Japan). The percent inhibition of activity was calculated relative to blank control wells. The concentration of test compound that inhibits 50% of activity (IC50) was interpolated using nonlinear regression (Levernberg-Marquardt) and the equation, y=Vmax (1−x/(K+x))+Y2, where “K” was equal to the IC50. The IC50 values were converted to pIC50 values, i.e., −log IC50 in Molar concentration.

T3 sequence (P35968 786-1356 limits assumed): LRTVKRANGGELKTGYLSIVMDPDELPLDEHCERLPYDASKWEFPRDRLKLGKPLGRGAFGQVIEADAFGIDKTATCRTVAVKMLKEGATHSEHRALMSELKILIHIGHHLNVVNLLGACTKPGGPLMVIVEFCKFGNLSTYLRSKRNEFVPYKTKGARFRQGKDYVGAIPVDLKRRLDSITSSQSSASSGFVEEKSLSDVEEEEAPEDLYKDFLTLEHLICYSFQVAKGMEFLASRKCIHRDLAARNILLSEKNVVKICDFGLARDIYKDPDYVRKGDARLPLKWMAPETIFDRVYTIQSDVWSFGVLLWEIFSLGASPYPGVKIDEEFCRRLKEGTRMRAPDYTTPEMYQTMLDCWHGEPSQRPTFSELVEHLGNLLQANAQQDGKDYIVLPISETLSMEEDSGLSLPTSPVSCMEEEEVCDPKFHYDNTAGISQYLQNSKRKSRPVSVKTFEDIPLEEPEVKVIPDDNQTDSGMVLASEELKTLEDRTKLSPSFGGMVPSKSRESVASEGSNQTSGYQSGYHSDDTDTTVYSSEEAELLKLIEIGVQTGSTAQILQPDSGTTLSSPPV
T1 sequence (Q02763 770-1124 limits assumed, change not shown): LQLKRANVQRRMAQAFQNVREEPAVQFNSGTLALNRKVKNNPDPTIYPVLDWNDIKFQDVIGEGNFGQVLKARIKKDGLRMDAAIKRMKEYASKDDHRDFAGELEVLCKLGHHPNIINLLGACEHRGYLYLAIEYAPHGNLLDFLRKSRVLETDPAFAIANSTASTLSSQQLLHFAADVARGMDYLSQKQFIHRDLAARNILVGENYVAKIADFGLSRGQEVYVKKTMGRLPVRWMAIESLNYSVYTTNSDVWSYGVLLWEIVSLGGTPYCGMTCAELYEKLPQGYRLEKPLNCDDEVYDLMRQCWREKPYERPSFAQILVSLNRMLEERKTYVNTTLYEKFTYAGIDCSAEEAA
T2 sequence (Q02763 762-1104): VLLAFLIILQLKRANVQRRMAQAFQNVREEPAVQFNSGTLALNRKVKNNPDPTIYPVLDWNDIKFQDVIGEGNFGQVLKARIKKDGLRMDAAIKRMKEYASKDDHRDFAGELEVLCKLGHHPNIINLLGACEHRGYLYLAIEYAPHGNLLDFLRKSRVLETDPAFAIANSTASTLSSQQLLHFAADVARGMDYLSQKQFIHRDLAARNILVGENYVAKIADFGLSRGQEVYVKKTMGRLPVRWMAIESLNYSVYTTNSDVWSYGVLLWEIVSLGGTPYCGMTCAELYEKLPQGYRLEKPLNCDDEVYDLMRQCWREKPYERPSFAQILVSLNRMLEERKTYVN

For the molecule `COC(=O)Nc1nc2ccc(Sc3ccc(NC(=O)Nc4cc(C(F)(F)F)ccc4F)cc3)cc2[nH]1` [Example 9, Methyl N-(5-(4-((2-fluoro-5-(trifluoromethyl)phenyl)aminocarbonylamino)phenylthio)-1H-benzimidazol-2-yl)carbamate], the VEGF-C entry in assay [1] is recorded as “−”.
Consider `COC(=O)Nc1nc2cc(Oc3ccc(NC(=O)Nc4cccc(Br)c4)cc3)ccc2[nH]1` [Example 40, Methyl N-(5-(4-((3-bromophenyl)aminocarbonylamino)phenoxy)-1H-benzimidazol-2-yl)carbamate], for which the IC50 in assay [2] and in assay [3] was under 100 nM throughout. Moreover, the VEGF-C entry in assay [1] was “−”.
As to `COC(=O)Nc1nc2ncc(Oc3ccc(NC(=O)Nc4cc(C(F)(F)F)ccc4F)cc3)cc2[nH]1.Cl` [Example 75, Methyl N-(6-(4-((2-fluoro-5-(trifluoromethyl)phenyl)aminocarbonylamino)phenoxy)-3,4-diaza-1H-indole-2-yl)carbamate dihydrochloride], the IC50 in assay [2] is under 100 nM; in assay [3] it was 100 to 1000 nM. The VEGF-C result in assay [1] is listed as “−”.
In the case of `COC(=O)Nc1nc2ccc(Oc3ccc(NC(=O)Nc4cc(C(F)(F)F)ccc4F)cc3)cc2[nH]1` [Example 10, Methyl N-(5-(4-((2-fluoro-5-(trifluoromethyl)phenyl)aminocarbonylamino)phenoxy)-1H-benzimidazol-2-yl)carbamate], the IC50 (against GST-VEGFR2; in assay [1]) was under 100 nM each time.
In the case of `COC(=O)Nc1nc2cc(Oc3ccc(NC(=S)Nc4cccc(OC)c4)cc3)ccc2[nH]1` [Example 185, Methyl N-(5-(4-((3-methoxyphenyl)aminothiocarbonylamino)phenoxy)-1H-benzimidazol-2-yl)carbamate], the IC50 on GST-VEGFR2 is 100 to 1000 nM; in assay [1] it was 1000 to 10000 nM.
With `COC(=O)Nc1nc2ccc(Sc3ccc(NC(=O)Nc4cc([N+](=O)[O-])ccc4C)cc3)cc2[nH]1` [Example 6, Methyl N-(5-(4-((2-methyl-5-nitrophenyl)aminocarbonylamino)phenylthio)-1H-benzimidazol-2-yl)carbamate], the 50% inhibitory concentration (IC50) on GST-VEGFR2 is 1000 to 10000 nM; in assay [3] it was under 100 nM. Besides, the VEGF-C entry in assay [1] is “−”.
For `O=C(Nc1ccc(Oc2ccc3[nH]c(NC(=O)c4ccco4)nc3c2)cc1)Nc1cc(C(F)(F)F)ccc1F` [Example 27, N-(5-(4-((2-Fluoro-5-(trifluoromethyl)phenyl)aminocarbonylamino)phenoxy)-1H-benzimidazol-2-yl)(2-fury)formamide], the half-maximal inhibitory concentration (IC50) in assay [1] was 100 to 1000 nM.
In the case of `COC(=O)Nc1nc2ccc(Sc3ccc(NC(=O)Nc4cc(C(F)(F)F)cc(C(F)(F)F)c4)cc3)cc2[nH]1` [Example 3, Methyl N-(5-(4-((3,5-di(trifluoromethyl)phenyl)aminocarbonylamino)phenylthio)-1H-benzimidazol-2-yl)carbamate], the half-inhibitory concentration (IC50) was under 100 nM against GST-VEGFR2 and 100 to 1000 nM in assay [3]. Moreover, the VEGF-C entry in assay [1] is given as “−”.
Regarding `CC(=O)Nc1nc2cc(Oc3ccc(NC(=O)Nc4cc(C(F)(F)F)ccc4F)cc3)ccc2[nH]1` [Example 25, N-(5-(4-((2-Fluoro-5-(trifluoromethyl)phenyl)aminocarbonylamino)phenoxy)-1H-benzimidazol-2-yl)acetamide], in assay [1], the IC50 was under 100 nM.
`COC(=O)Nc1nc2c(Br)cc(Oc3ccc(NC(=O)Nc4cc(C(F)(F)F)ccc4F)cc3)cc2s1.Cl` [Example 65]: the VEGF-C entry in assay [1] is listed as “−”.
Take `CCc1cccc(NC(=O)Nc2ccc(Sc3ccc4nc(NC(=O)OC)[nH]c4c3)cc2)c1` [Example 7, Methyl N-(5-(4-((3-ethylphenyl)aminocarbonylamino)phenylthio)-1H-benzimidazol-2-yl)carbamate]: the VEGF-E result on GST-VEGFR2 is “−”. The same molecule showed a 50% inhibitory concentration (IC50) in assay [3] of under 100 nM. In addition, in assay [1], the VEGF-C entry is “−”.
As for `COC(=O)Nc1nc2ccc(Sc3ccc(NC(=O)Nc4cc([N+](=O)[O-])ccc4F)cc3)cc2[nH]1` [Example 8, Methyl N-(5-(4-((2-fluoro-5-nitrophenyl)aminocarbonylamino)phenylthio)-1H-benzimidazol-2-yl)carbamate], the IC50 (against GST-VEGFR2; in assay [3]) was under 100 nM in each case. Also, the VEGF-C result in assay [1] is listed as “−”.
Turning to `COC(=O)Nc1nc2c(Br)cc(Oc3ccc(NC(=O)Nc4cc(C(F)(F)F)ccc4F)cc3)cc2s1.Cl` [Example 65, Methyl N-(4-bromo-6-(4-((6-fluoro-3-(trifluoromethylphenyl)aminocarbonylamino)phenoxy)benzthiazol-2-yl)carbamate hydrochloride], the concentration for half-maximal inhibition (IC50) (on GST-VEGFR2; in assay [2]; in assay [3]) was under 100 nM throughout.
As to `O=C(Nc1ccc(Oc2ccc3nc(NC(=O)c4cccs4)[nH]c3c2)cc1)Nc1cc(C(F)(F)F)ccc1F` [Example 100, N-(5-(4-((2-Fluoro-5-(trifluoromethyl)phenyl)aminocarbonylamino)phenoxy)-1H-benzimidazol-2-yl)-2-thiophenecarboxamide], the concentration for half-maximal inhibition (IC50) (at GST-VEGFR2; in assay [2]; in assay [3]) was under 100 nM each time.
